# Measurements: ChEMBL document CHEMBL1139605, “Novel ketal ligands for the glucocorticoid receptor: in vitro and in vivo activity” (Bioorg Med Chem Lett, 2005)
# Columns and labels:
# Mus musculus [1] = species: Mus musculus; assay: Effective concentration required for inhibition of interleukin-6 in mouse thioglycolate-elicited peritoneal exudate cell line using 77% radiolabeled Dexamethasone; type: functional
# A549 [2] = assay: Effective concentration for inhibition of interleukin-6 in human A549 lung carcinoma cell line using 59% radiolabeled Dexamethasone; type: functional, cell-based
# Glucocorticoid receptor [3] = target: T1, Glucocorticoid receptor (Homo sapiens, UniProt P04150); assay: Inhibition of human glucocorticoid receptor alpha isoform
# T1 sequence (P04150 whole entry): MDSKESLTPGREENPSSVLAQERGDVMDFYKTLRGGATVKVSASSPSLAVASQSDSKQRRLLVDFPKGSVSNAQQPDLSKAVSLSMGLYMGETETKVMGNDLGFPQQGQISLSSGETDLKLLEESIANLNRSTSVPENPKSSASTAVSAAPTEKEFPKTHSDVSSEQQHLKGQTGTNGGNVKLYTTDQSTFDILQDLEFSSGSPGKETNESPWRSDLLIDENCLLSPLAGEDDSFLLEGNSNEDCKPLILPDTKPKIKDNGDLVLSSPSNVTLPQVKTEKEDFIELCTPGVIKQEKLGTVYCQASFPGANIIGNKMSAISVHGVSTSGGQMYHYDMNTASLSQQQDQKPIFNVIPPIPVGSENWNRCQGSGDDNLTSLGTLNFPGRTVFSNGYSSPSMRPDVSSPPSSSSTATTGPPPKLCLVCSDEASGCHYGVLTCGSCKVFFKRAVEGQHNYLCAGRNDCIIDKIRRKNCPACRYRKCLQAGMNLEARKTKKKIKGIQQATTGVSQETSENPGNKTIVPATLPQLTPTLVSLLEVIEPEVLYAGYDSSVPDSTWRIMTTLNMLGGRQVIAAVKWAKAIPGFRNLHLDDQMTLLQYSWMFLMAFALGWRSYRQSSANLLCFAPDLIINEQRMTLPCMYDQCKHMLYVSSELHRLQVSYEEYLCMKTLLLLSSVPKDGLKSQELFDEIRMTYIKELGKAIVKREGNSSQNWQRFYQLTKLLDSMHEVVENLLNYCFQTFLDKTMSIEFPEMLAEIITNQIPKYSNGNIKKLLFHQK
# A549 [4] = assay: Effective concentration required for inhibition of interleukin-6 in human A549 lung carcinoma cell line using 93% radiolabeled Dexamethasone; type: functional, cell-based
# HepG2 = assay: Effective concentration required for induction of tyrosine aminotransferase in human HepG2 cells using 74% radiolabeled Dexamethasone; type: functional, cell-based
# [5] = Effective concentration required for induction of glutamine synthetase in human skeletal muscle cells using 45% radiolabeled Dexamethasone; type: functional
# Mus musculus [6] = species: Mus musculus; assay: Effective concentration required for inhibition of interleukin-6 in mouse thioglycolate-elicited peritoneal exudate cell line using 111% radiolabeled Dexamethasone; type: functional
# Mus musculus [7] = species: Mus musculus; assay: Effective concentration required for inhibition of interleukin-6 in mouse thioglycolate-elicited peritoneal exudate cell line using 72% radiolabeled Dexamethasone; type: functional
# A549 [8] = assay: Effective concentration for inhibition of interleukin-6 in human A549 lung carcinoma cell line using 58% radiolabeled Dexamethasone; type: functional, cell-based
# Mus musculus [9] = species: Mus musculus; assay: Effective concentration required for inhibition of interleukin-6 in mouse thioglycolate-elicited peritoneal exudate cell line using 52% radiolabeled Dexamethasone; type: functional
# A549 [10] = assay: Effective concentration for inhibition of interleukin-6 in human A549 lung carcinoma cell line using […]% radiolabeled Dexamethasone; type: functional, cell-based
# Mus musculus [11] = species: Mus musculus; assay: Effective concentration required for inhibition of interleukin-6 in mouse thioglycolate-elicited peritoneal exudate cell line using 56% radiolabeled Dexamethasone; type: functional
# Estrogen receptor = target: T2, Estrogen receptor (Homo sapiens, UniProt P03372); assay: Binding affinity for human estrogen receptor alpha
# T2 sequence (P03372 whole entry): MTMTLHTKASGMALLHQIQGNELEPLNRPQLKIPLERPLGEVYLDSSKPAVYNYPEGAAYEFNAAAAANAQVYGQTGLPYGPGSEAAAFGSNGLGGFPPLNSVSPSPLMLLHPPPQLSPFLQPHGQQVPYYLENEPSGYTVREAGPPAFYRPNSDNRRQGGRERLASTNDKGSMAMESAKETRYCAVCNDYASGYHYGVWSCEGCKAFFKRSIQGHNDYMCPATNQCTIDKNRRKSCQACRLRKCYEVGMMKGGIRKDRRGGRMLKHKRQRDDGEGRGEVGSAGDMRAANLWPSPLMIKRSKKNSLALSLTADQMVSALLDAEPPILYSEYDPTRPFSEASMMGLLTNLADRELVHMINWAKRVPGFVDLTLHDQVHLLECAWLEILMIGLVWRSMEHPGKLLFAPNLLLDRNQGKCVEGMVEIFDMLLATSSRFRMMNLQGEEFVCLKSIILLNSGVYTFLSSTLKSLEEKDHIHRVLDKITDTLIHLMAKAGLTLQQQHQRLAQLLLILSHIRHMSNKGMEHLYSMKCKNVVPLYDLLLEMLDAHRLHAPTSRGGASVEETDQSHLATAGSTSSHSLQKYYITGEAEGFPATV
# Glucocorticoid receptor [12] = target: T1, Glucocorticoid receptor; assay: Binding affinity for human glucocorticoid receptor
# [13] = Clearance data in mouse at 2 mg/kg i.v. administration; type: ADME, organism-based; set-up: dose 2 mg/kg, route intravenous; settings: in vivo, iv
# Estrogen receptor beta = Estrogen receptor beta (Homo sapiens, UniProt Q92731); assay: Binding affinity for human estrogen receptor beta
# [14] = Half life time in mouse at 2 mg/kg i.v. administration; type: ADME, organism-based; set-up: dose 2 mg/kg, route intravenous; settings: in vivo, iv
# [15] = Volume of distribution in mouse at 2 mg/kg i.v. administration; type: ADME, organism-based; set-up: dose 2 mg/kg, route intravenous; settings: in vivo, iv, read-out: Volume of distribution
# Mus musculus [16] = species: Mus musculus; assay: Effective concentration required for interleukin-6 transrepression in peritoneal exudate cells of C57B1/6 mouse using 56% Dexamethasone; type: functional, cell-based
# [17] = Bioavailability in mouse (dose 10 mg/kg p.o.); type: ADME, organism-based; settings: in vivo, po
# Mus musculus [18] = assay: Inhibition of LPS induced TNF-alpha secretion in mouse at an oral dose of 30 mg/kg relative to that produced by Dexamethasone at a dose of 0.3 mg/kg; type: functional
# [19] = target: T3, Mineralocorticoid receptor (Rattus norvegicus, UniProt P22199); assay: Binding affinity for rat mineralocorticoid receptor
# T3 sequence (P22199 whole entry): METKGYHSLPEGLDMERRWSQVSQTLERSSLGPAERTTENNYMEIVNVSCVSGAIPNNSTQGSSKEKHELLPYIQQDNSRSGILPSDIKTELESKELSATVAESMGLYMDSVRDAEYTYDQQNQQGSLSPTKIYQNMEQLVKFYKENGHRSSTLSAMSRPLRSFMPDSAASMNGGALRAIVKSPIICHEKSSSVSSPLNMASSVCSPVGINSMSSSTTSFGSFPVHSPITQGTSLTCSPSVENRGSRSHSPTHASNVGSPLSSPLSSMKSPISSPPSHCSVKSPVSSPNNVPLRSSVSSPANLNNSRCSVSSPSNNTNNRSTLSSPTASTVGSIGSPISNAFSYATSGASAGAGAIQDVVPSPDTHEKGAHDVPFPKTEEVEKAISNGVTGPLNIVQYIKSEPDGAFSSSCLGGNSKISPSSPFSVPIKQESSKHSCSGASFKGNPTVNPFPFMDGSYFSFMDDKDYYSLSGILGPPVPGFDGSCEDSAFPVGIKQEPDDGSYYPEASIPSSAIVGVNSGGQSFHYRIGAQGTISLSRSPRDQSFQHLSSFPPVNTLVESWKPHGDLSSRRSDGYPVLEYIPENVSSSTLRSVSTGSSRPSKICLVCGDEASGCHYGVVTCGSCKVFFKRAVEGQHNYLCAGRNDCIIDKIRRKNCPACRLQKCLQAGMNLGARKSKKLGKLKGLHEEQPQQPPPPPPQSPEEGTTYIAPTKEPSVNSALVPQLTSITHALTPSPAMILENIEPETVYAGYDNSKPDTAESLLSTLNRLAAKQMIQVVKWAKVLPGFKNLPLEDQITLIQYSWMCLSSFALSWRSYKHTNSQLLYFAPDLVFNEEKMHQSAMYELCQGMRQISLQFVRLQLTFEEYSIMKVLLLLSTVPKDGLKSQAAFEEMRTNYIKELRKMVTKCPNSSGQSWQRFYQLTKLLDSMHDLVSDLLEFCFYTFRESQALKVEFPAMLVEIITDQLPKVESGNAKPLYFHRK
# Progesterone receptor = target: T4, Progesterone receptor (Homo sapiens, UniProt P06401); assay: Binding affinity for human progesterone receptor
# T4 sequence (P06401 whole entry): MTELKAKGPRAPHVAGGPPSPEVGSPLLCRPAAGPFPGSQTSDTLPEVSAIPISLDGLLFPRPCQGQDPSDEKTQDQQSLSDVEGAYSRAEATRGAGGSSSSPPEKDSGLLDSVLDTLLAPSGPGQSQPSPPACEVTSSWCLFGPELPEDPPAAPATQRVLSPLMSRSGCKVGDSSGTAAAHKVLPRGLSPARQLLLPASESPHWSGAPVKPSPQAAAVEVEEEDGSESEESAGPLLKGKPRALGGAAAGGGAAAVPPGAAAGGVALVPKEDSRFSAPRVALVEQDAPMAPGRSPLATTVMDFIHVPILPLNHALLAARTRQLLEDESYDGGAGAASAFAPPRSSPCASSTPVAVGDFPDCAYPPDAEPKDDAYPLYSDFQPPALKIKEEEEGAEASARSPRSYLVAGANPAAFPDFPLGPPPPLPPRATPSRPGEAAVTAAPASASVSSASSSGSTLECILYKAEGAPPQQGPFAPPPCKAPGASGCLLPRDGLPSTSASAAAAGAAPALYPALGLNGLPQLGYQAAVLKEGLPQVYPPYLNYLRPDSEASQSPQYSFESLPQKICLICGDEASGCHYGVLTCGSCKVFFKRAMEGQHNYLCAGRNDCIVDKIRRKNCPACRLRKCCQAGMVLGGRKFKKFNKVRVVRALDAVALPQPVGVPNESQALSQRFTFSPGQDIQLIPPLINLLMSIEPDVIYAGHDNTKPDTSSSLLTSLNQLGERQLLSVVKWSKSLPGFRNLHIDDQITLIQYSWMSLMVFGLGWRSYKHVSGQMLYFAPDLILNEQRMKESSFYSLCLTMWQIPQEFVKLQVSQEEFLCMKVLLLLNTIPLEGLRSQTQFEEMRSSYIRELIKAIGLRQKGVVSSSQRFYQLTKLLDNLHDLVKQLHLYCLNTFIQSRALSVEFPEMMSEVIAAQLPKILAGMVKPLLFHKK
# Mus musculus [20] = species: Mus musculus; assay: Effective concentration required for inhibition of interleukin-6 in mouse thioglycolate-elicited peritoneal exudate cell line using 70% radiolabeled Dexamethasone; type: functional
# Mus musculus [21] = species: Mus musculus; assay: Effective concentration required for inhibition of interleukin-6 in mouse thioglycolate-elicited peritoneal exudate cell line using 85% radiolabeled Dexamethasone; type: functional
# A549 [22] = assay: Effective concentration for inhibition of interleukin-6 in human A549 lung carcinoma cell line using 67% radiolabeled Dexamethasone; type: functional, cell-based
# [23] = Effective concentration required for induction of glutamine synthetase in human skeletal muscle cells using 0% radiolabeled Dexamethasone; type: functional
# Estrogen receptor beta, sequence (Q92731 whole entry): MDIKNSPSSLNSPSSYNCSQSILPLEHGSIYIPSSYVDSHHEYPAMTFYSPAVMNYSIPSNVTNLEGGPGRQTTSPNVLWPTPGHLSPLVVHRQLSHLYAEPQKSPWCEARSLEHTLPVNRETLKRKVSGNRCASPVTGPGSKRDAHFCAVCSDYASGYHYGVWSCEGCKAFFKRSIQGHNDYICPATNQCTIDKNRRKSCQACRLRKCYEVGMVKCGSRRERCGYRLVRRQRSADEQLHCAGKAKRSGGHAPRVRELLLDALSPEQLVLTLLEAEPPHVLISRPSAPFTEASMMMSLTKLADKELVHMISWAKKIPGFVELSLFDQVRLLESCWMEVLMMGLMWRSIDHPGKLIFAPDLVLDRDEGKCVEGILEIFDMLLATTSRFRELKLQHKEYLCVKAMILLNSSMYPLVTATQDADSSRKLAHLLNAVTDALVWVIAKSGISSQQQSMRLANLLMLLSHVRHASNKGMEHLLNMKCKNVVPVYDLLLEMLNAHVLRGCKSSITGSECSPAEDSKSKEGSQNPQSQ
smiles,measurement,setting,value
C[C@@H]1CC(C)(C)O[C@@]2(CCC3=Cc4c(cnn4-c4ccc(F)cc4)C[C@@]32C)O1,EC50,Mus musculus [1],0.018 µM
same,EC50,A549 [2],0.025 µM
same,IC50,Glucocorticoid receptor [3],0.0021 µM
C/C=C/[C@H]1OC2(CCC3=Cc4c(cnn4-c4ccc(F)cc4)C[C@@]32C)O[C@@H]1/C=C/C,EC50,A549 [4],0.0065 µM
same,IC50,Glucocorticoid receptor [3],0.0027 µM
same,EC50,HepG2,0.164 µM
same,EC50,[5],0.017 µM
same,EC50,Mus musculus [6],0.0076 µM
C[C@@H]1C[C@@H](C)OC2(CCC3=Cc4c(cnn4-c4ccc(F)cc4)C[C@@]32C)O1 (stereo in doubt; form 1),EC50,Mus musculus [7],0.045 µM
same,EC50,A549 [8],0.0075 µM
same,IC50,Glucocorticoid receptor [3],0.0084 µM
C=C[C@@H]1CO[C@]2(CCC3=Cc4c(cnn4-c4ccc(F)cc4)C[C@@]32C)O1,EC50,Mus musculus [9],0.168 µM
same,EC50,A549 [10],0.009 µM
same,IC50,Glucocorticoid receptor [3],0.0058 µM
C=C[C@H]1OC2(CCC3=Cc4c(cnn4-c4ccc(F)cc4)C[C@@]32C)O[C@@H]1C=C,EC50,Mus musculus [11],0.061 µM
same,EC50,A549 [8],0.0026 µM
same,IC50,Estrogen receptor,> 10 µM
same,IC50,Glucocorticoid receptor [12],0.008 µM
same,clearance,[13],114 mL/min/kg
same,IC50,Estrogen receptor beta,> 10 µM
same,half-life,[14],2.3 h
same,Vd,[15],15.3 L/kg
same,IC50,Glucocorticoid receptor [3],0.008 µM
same,EC50,Mus musculus [16],0.061 µM
same,bioavailability,[17],14.3%
same,Inhibition,Mus musculus [18],96.8%
same,IC50,[19],> 10 µM
same,IC50,Progesterone receptor,> 1 µM
C[C@]12Cc3cnn(-c4ccc(F)cc4)c3C=C1CC[C@]21OC[C@@H](c2ccccc2)O1,EC50,Mus musculus [20],0.091 µM
same,IC50,Glucocorticoid receptor [3],0.0085 µM
C[C@]12Cc3cnn(-c4ccc(F)cc4)c3C=C1CCC21O[C@H](c2ccccc2)[C@@H](c2ccccc2)O1,EC50,Mus musculus [21],0.06 µM
same,EC50,A549 [22],0.01 µM
same,EC50,[23],0.01 µM
same,IC50,Glucocorticoid receptor [3],0.01 µM
